Source: patent US20100152434A1, “Protein Kinase-binding Nucleosides and Associated Methods” (priority 2007, published 2010)
Where two headings read alike, the source gives them in different places.

Tests used:
HOP-62 = assay: cells; details: Homo sapiens, HOP-62
MDA-MB-435 = MDA-MB-435 (Melanoma panel)
MCF7 = assay: cells; details: Homo sapiens, MCF7
SK-MEL-5 = assay: cells; details: Homo sapiens, SK-MEL-5
HT29 = assay: cells; details: Homo sapiens, HT-29
RPMI-8226 [1] = assay: cells; details: Homo sapiens, RPMI-8226
TK-10 [2] = test system: TK-10
MALME-3M = assay: cells; details: Homo sapiens
BT-549 = assay: cells; details: Homo sapiens, BT-549
788-0 = assay: cells; details: Homo sapiens, 786-0
OVCAR-4 = assay: cells; details: Homo sapiens, OVCAR-4
TK-10 [3] = assay: cells; details: Homo sapiens, TK-10
RXF 393 = details: RXF 393
UACC-62 = assay: cells; details: Homo sapiens, UACC-62
RPMI-8226 [4] = test system: RPMI-8226
[5] = Log10 Concentration −4.0, Molar
[6] = Log10 Concentration −5.0, Molar
[7] = Log10 Concentration −6.0, Molar
[8] = Log10 Concentration −7.0, Molar
[9] = Log10 Concentration −8.0, Molar

CNC(=O)NC[C@H]1O[C@@H](n2cnc3c(NC(=O)Nc4ccccc4)ncnc32)C(O[Si](C)(C)C(C)(C)C)[C@H]1O[Si](C)(C)C(C)(C)C (stereo partly shown) [Compound 25, 2′,3′-Bis-O-(tert-butyldimethylsilyl)-5-deoxy-5′-[(N-methylcarbamoyl)amino]-N^6-(N-phenylcarbamoyl)adenosine]
GI50 (HOP-62): 49.8 µM | IC50 (HOP-62): 49 µM | TGI (MDA-MB-435): 2.91E−5 Molar | Percent Growth (MDA-MB-435; Log10 Concentration −4.0 Molar): −10% | Percent Growth (MDA-MB-435; Log10 Concentration −5.0 Molar): 9% | Percent Growth (MDA-MB-435; Log10 Concentration −6.0 Molar): 97% | Percent Growth (MDA-MB-435; Log10 Concentration −7.0 Molar): 102% | Percent Growth (MDA-MB-435; Log10 Concentration −8.0 Molar): 102% | TGI (SF-539): 1.30E−5 Molar | Percent Growth (SF-539; [5]): −51% | Percent Growth (SF-539; [6]): 7% | Percent Growth (SF-539; [7]): 91% | Percent Growth (SF-539; [8]): 100% | Percent Growth (SF-539; [9]): 100% | TGI (MDA-MB-231/ATCC): 5.12E−6 Molar | Percent Growth (MDA-MB-231/ATCC; [5]): −76% | Percent Growth (MDA-MB-231/ATCC; [6]): −20% | Percent Growth (MDA-MB-231/ATCC; [7]): 106% | Percent Growth (MDA-MB-231/ATCC; [8]): 109% | Percent Growth (MDA-MB-231/ATCC; [9]): 105% | GI50 (MCF7): 2.69 µM | IC50 (MCF7): > 100 µM | TGI (DU-145): 5.71E−6 Molar | Percent Growth (DU-145; [5]): −89% | Percent Growth (DU-145; [6]): −35% | Percent Growth (DU-145; [7]): 109% | Percent Growth (DU-145; [8]): 107% | Percent Growth (DU-145; [9]): 103% | TGI (M14): 1.85E−5 Molar | Percent Growth (M14; [5]): −52% | Percent Growth (M14; [6]): 19% | Percent Growth (M14; [7]): 105% | Percent Growth (M14; [8]): 107% | Percent Growth (M14; [9]): 101% | GI50 (SK-MEL-5): 1.98 µM | IC50 (SK-MEL-5): 13.6 µM | GI50 (HT29): 2.02 µM | IC50 (HT29): 8.91 µM | GI50 (RPMI-8226 [1]): 3.27 µM | IC50 (RPMI-8226 [1]): > 100 µM | TGI (NCI-H23): 9.07E−6 Molar | Percent Growth (NCI-H23; [5]): −53% | Percent Growth (NCI-H23; [6]): −5% | Percent Growth (NCI-H23; [7]): 105% | Percent Growth (NCI-H23; [8]): 106% | Percent Growth (NCI-H23; [9]): 100% | TGI (TK-10 [2]): 7.26E−5 Molar | Percent Growth (TK-10 [2]; [5]): −2% | Percent Growth (TK-10 [2]; [6]): 14% | Percent Growth (TK-10 [2]; [7]): 112% | Percent Growth (TK-10 [2]; [8]): 113% | Percent Growth (TK-10 [2]; [9]): 110% | GI50 (MALME-3M): 2.98 µM | IC50 (MALME-3M): > 100 µM | TGI (OVCAR-8): 4.01E−5 Molar | Percent Growth (OVCAR-8; [5]): −9% | Percent Growth (OVCAR-8; [6]): 13% | Percent Growth (OVCAR-8; [7]): 106% | Percent Growth (OVCAR-8; [8]): 106% | Percent Growth (OVCAR-8; [9]): 108% | GI50 (BT-549): 2.92 µM | IC50 (BT-549): > 100 µM | TGI (A549/ATCC): 1.20E−5 Molar | Percent Growth (A549/ATCC; [5]): −30% | Percent Growth (A549/ATCC; [6]): 4% | Percent Growth (A549/ATCC; [7]): 90% | Percent Growth (A549/ATCC; [8]): 98% | Percent Growth (A549/ATCC; [9]): 99% | GI50 (788-0): 2.04 µM | IC50 (788-0): 6.75 µM | TGI (SNB-19): >1.00E−4 Molar | Percent Growth (SNB-19; [5]): 7% | Percent Growth (SNB-19; [6]): 29% | Percent Growth (SNB-19; [7]): 91% | Percent Growth (SNB-19; [8]): 100% | Percent Growth (SNB-19; [9]): 97% | GI50 (OVCAR-4): 3.44 µM | IC50 (OVCAR-4): > 100 µM | TGI (HOP-92): 5.16E−6 Molar | Percent Growth (HOP-92; [5]): −50% | Percent Growth (HOP-92; [6]): −25% | Percent Growth (HOP-92; [7]): 69% | Percent Growth (HOP-92; [8]): 80% | Percent Growth (HOP-92; [9]): 85% | GI50 (TK-10 [3]): 4.29 µM | IC50 (TK-10 [3]): > 100 µM | TGI (UO-31): 9.56E−6 Molar | Percent Growth (UO-31; [5]): −21% | Percent Growth (UO-31; [6]): −2% | Percent Growth (UO-31; [7]): 84% | Percent Growth (UO-31; [8]): 97% | Percent Growth (UO-31; [9]): 87% | TGI (RXF 393): 4.01E−6 Molar | Percent Growth (RXF 393; [5]): −77% | Percent Growth (RXF 393; [6]): −73% | Percent Growth (RXF 393; [7]): 111% | Percent Growth (RXF 393; [8]): 73% | Percent Growth (RXF 393; [9]): 96% | GI50 (UACC-62): 3.98 µM | IC50 (UACC-62): > 100 µM | TGI (RPMI-8226 [4]): >1.00E−4 Molar | Percent Growth (RPMI-8226 [4]; [5]): 4% | Percent Growth (RPMI-8226 [4]; [6]): 5% | Percent Growth (RPMI-8226 [4]; [7]): 98% | Percent Growth (RPMI-8226 [4]; [8]): 98% | Percent Growth (RPMI-8226 [4]; [9]): 102% | TGI (OVCAR-5): 2.52E−5 Molar | Percent Growth (OVCAR-5; [5]): −43% | Percent Growth (OVCAR-5; [6]): 29% | Percent Growth (OVCAR-5; [7]): 103% | Percent Growth (OVCAR-5; [8]): 99% | Percent Growth (OVCAR-5; [9]): 96%
